Assay results published in PMC7794376 (Nature Communications, 2021).
Where “and” joins values, the source holds several entries; their conditions need not be identical. Equal entries are not always repeated. Where two headings read alike, the source gives them in different places.

Columns and labels:
[1] = molecular target: human CoaB (HCoaB) (Homo sapiens, UniProt Q9HAB8); test: EnzChek pyrophosphate assay, HCoaB; type: biochemical
[2] = molecular target: MsmCoaBC (Mycolicibacterium smegmatis, UniProt A0QWT2); test: EnzChek pyrophosphate assay, CoaB activity of MsmCoaBC; type: biochemical, Mycobacterium smegmatis; settings: for Activity: slope of absorbance at 360 nm vs time (s); for inhibition, IC50 MsmCoaBC 2b / reaction rate (slope of absorbance at 360 nm over time), IC50 MsmCoaBC 2b / remaining activity relative to control, IC50 MsmCoaBC 2b: triplicate
Experimental: The commercially available EnzChek pyrophosphate assay kit (E-6645) (Life Technologies) was used for this assay. […] In the assays with HCoaB an enzyme concentration of 1 µM was used instead. […] Assays were performed on either a CLARIOstar or PHERAstar microplate reader (BMG Labtech) in 96-well plates (Greiner). A substrate mixture containing the substrates and the inhibitor was pre-incubated at 25 °C for 10 min. An enzyme solution was prepared and separately pre-incubated at 25 °C for 10 min. The reaction was initiated by the addition of the substrates to the solution containing the enzyme to a final volume of 75 µL. Enzymatic activity was monitored by following the absorbance at 360 nm for 30 min (100 cycles/20 s each cycle) and only the steady-state region of the assay was used for data analysis. Assays were performed in triplicates, including a negative control (lacking PPA) and a positive control (lacking inhibitor).

[3] = molecular target: MtbCoaBC (Mycobacterium tuberculosis, UniProt P9WNZ1); test: biochemical; type: biochemical; settings: 0.015625 uM 2b; for activity at 0.015625 µM: relative to average DMSO CT
[4] = 0.015625 uM 2b, relative to average DMSO CT, replicates R1-R3
[5] = 0.015625 uM 2b, replicates R1-R3
[6] = 0.03125 uM 2b, relative to average DMSO CT, replicates R1-R3
[7] = 0.03125 uM 2b, replicates R1-R3
[8] = 0.0625 uM 2b, relative to average DMSO CT, replicates R1-R3
[9] = 0.25 uM 2b, relative to average DMSO CT, replicates R1-R3
[10] = 0.5 uM 2b, relative to average DMSO CT, replicates R1-R3
[11] = inhibitor concentration 1 (log 0; unit not given)
[12] = inhibitor concentration 2 (log 0.30103; unit not given)

Sequence of human CoaB (HCoaB) (Q9HAB8 whole entry): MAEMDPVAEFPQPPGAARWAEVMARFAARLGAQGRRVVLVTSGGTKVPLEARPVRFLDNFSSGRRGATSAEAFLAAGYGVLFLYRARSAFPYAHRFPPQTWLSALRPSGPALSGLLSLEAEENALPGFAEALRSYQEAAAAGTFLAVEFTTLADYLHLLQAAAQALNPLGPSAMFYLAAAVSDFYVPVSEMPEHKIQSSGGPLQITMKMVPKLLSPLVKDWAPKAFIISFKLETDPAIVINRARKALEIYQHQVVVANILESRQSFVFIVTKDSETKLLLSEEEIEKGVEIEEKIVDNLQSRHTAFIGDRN
Sequence of MtbCoaBC (P9WNZ1 whole entry): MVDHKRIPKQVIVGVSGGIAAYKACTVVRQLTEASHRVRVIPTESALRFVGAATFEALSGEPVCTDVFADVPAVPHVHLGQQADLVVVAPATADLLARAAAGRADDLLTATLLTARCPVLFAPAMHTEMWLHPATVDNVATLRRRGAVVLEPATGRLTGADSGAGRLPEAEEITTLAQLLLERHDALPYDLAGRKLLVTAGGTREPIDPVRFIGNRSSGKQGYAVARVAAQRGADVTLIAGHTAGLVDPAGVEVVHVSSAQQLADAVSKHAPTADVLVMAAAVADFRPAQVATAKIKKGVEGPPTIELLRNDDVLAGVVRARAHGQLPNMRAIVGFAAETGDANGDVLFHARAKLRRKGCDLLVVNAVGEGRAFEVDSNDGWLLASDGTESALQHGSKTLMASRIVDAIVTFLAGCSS
Sequence of MsmCoaBC (A0QWT2 whole entry): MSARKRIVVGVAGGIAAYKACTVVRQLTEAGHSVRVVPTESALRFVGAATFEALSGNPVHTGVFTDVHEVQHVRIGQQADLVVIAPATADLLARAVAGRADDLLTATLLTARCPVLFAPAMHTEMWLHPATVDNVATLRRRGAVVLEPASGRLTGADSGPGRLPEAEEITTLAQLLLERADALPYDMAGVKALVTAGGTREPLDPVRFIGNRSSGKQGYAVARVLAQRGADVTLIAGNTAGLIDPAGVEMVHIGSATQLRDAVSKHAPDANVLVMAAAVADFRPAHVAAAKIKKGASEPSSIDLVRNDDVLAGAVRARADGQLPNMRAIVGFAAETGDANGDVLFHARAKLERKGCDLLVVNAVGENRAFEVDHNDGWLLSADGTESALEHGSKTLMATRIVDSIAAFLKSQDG

In the case of `O=c1cc(-c2ccc(O)c(O)c2)oc2cc(O)c(O)cc12` [compound 2b], the IC50 ([1]; 1 µM enzyme, average of three independent experiments ± SD) is reported as 60 ± 7 µM, the activity at 3.125 µM ([1]; 3.125 uM compound, HCoaB, relative to average DMSO CT, replicates R1-R3) is reported as 96.1% and the Activity % ([1]; 3.125 uM compound, HCoaB, relative to average DMSO CT, replicates R1-R3, 3.125 µM) is reported as 99.35% and 93.21%. The Inhibition % ([1]; 3.125 uM compound, HCoaB, replicates R1-R3, 3.125 µM) was 0.65% and 6.79% and 3.88%, the activity at 6.25 µM ([1]; 6.25 uM compound, HCoaB, relative to average DMSO CT, replicates R1-R3) was 97.4% and the Activity % ([1]; 6.25 uM compound, HCoaB, relative to average DMSO CT, replicates R1-R3, 6.25 µM) was 94.68% and 99.68%. For the same molecule, the Inhibition % ([1]; 6.25 uM compound, HCoaB, replicates R1-R3, 6.25 µM) was 5.32% and 0.32% and 2.58%, the activity at 25 µM ([1]; 25 uM compound, HCoaB, relative to average DMSO CT, replicates R1-R3) was 66.3% and the Activity % ([1]; 25 uM compound, HCoaB, relative to average DMSO CT, replicates R1-R3, 25 µM) was 70.2% and 69.67%. For the same molecule, the inhibition at 25 µM ([1]; 25 uM compound, HCoaB, replicates R1-R3) was 29.8%, the Inhibition % ([1]; 25 uM compound, HCoaB, replicates R1-R3, 25 µM) was 30.33% and 33.67% and the activity at 50 µM ([1]; 50 uM compound, HCoaB, relative to average DMSO CT, replicates R1-R3) was 59%. For the same molecule, the Activity % ([1]; 50 uM compound, HCoaB, relative to average DMSO CT, replicates R1-R3, 50 µM) was 54.55% and 56.86%, the inhibition at 50 µM ([1]; 50 uM compound, HCoaB, replicates R1-R3) was 45.5% and the Inhibition % ([1]; 50 uM compound, HCoaB, replicates R1-R3, 50 µM) was 43.14% and 41.04%. The activity at 100 µM ([1]; 100 uM compound, HCoaB, relative to average DMSO CT, replicates R1-R3) was 38%, the Activity % ([1]; 100 uM compound, HCoaB, relative to average DMSO CT, replicates R1-R3, 100 µM) was 40.03% and 34.07% and the inhibition at 100 µM ([1]; 100 uM compound, HCoaB, replicates R1-R3) was 60%. For the same molecule, the Inhibition % ([1]; 100 uM compound, HCoaB, replicates R1-R3, 100 µM) was 65.93% and 62.02%, the IC50 [2] was 0.18 ± 0.02 µM and the Activity % [2, 4] was 94.35% and 94.28%. For the same molecule, the activity at 0.015625 µM [2, 4] was 95.3%, the Inhibition % [2, 5] was 5.72% and 4.75% and the inhibition at 0.015625 µM [2, 5] was 5.65%. For the same molecule, the Activity [2, 5] was 0.0002955 and 0.0002927 and 0.0002925, the Activity % [2, 6] was 88.08% and 86.2% and the activity at 0.03125 µM [2, 6] was 89.5%. For the same molecule, the Inhibition % [2, 7] was 13.80% and 10.50%, the inhibition at 0.03125 µM [2, 7] was 11.9% and the Activity [2, 7] was 0.0002776 and 0.0002732 and 0.0002674. The Activity % [2, 8] was 71.12% and 70.67%, the activity at 0.0625 µM [2, 8] was 74.4% and the Inhibition % ([2]; 0.0625 uM 2b, replicates R1-R3) was 29.33% and 25.59%. For the same molecule, the inhibition at 0.0625 µM ([2]; 0.0625 uM 2b, replicates R1-R3) was 28.9%, the Activity ([2]; 0.0625 uM 2b, replicates R1-R3) was 0.0002308 and 0.0002206 and 0.0002192 and the Activity % [2, 9] was 41.76% and 47.03%. The activity at 0.25 µM [2, 9] was 45.6%, the Inhibition % ([2]; 0.25 uM 2b, replicates R1-R3) was 52.97% and 54.45% and the inhibition at 0.25 µM ([2]; 0.25 uM 2b, replicates R1-R3) was 58.2%. The Activity ([2]; 0.25 uM 2b, replicates R1-R3) was 0.0001413 and 0.0001296 and 0.0001459, the Activity % [2, 10] was 29.05% and 29.76% and the activity at 0.5 µM [2, 10] was 30.5%. For the same molecule, the Inhibition % ([2]; 0.5 uM 2b, replicates R1-R3) was 70.24% and 69.54%, the inhibition at 0.5 µM ([2]; 0.5 uM 2b, replicates R1-R3) was 71% and the Activity ([2]; 0.5 uM 2b, replicates R1-R3) was 0.000094507 and 0.000090122 and 0.000092326. The “inhibition, IC50 MsmCoaBC 2b” value [2, 11] was 88.05 and 84.53 and 91.37, the “reaction rate (slope of absorbance at 360 nm over time), IC50 MsmCoaBC 2b” value [2, 11] was 0.000026783 and 0.000037077 and 0.000047977 and the “remaining activity relative to control, IC50 MsmCoaBC 2b” value [2, 11] was 8.633 and 11.95 and 15.47. The “inhibition, IC50 MsmCoaBC 2b” value [2, 12] was 96.00 and 96.49 and 94.20, the “reaction rate (slope of absorbance at 360 nm over time), IC50 MsmCoaBC 2b” value [2, 12] was 0.000017982 and 0.000012403 and 0.000010882 and the “remaining activity relative to control, IC50 MsmCoaBC 2b” value [2, 12] was 5.796 and 3.998 and 3.508. The inhibition at 0.015625 µM ([3]; replicate R1, read-out: Inhibition % R1) was 8.08%, the activity at 0.015625 µM ([3]; replicate R1, read-out: Activity % R1) was 91.9% and the “Activity R1” value ([3]; replicate R1, slope of absorbance at 360 nm vs time (s)) was 0.0001714. For the same molecule, the inhibition at 0.015625 µM ([3]; replicate R2, read-out: Inhibition % R2) was 5.01%, the activity at 0.015625 µM ([3]; replicate R2, read-out: Activity % R2) was 95% and the inhibition at 0.015625 µM ([3]; replicate R3, read-out: Inhibition % R3) was 10.3%.
